According to PubChem BioAssay (NCI):
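Cultured in 96-well plates, cells were exposed to test compound for 48 hours across five concentrations. The concentration for full growth arrest is given as TGI.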

How the values were obtained:
Assay in all cases: NCI-60 cell line screen, 48 h
OVCAR-3 ovarian = tested on: OVCAR-3 ovarian
SR leukemia = tested on: SR leukemia
SF-539 CNS = tested on: SF-539 CNS
IGROV1 ovarian = tested on: IGROV1 ovarian
DLD-1 colon = tested on: DLD-1 colon
SNB-19 CNS = tested on: SNB-19 CNS
LXFL 529 NSCLC = tested on: LXFL 529 NSCLC
OVCAR-4 ovarian = tested on: OVCAR-4 ovarian
EKVX NSCLC = tested on: EKVX NSCLC
CAKI-1 renal = tested on: CAKI-1 renal
786-0 renal = tested on: 786-0 renal
SN12C renal = tested on: SN12C renal
SNB-75 CNS = tested on: SNB-75 CNS
A549 NSCLC = tested on: A549 NSCLC
HCT-116 colon = tested on: HCT-116 colon
XF 498 CNS = tested on: XF 498 CNS
M19-MEL melanoma = tested on: M19-MEL melanoma
TK-10 renal = tested on: TK-10 renal
HOP-62 NSCLC = tested on: HOP-62 NSCLC
MOLT-4 leukemia = tested on: MOLT-4 leukemia
HOP-92 NSCLC = tested on: HOP-92 NSCLC
M14 melanoma = tested on: M14 melanoma
SK-MEL-28 melanoma = tested on: SK-MEL-28 melanoma
RXF 393 renal = tested on: RXF 393 renal
NCI-H460 lung = tested on: NCI-H460 lung
HOP-18 NSCLC = tested on: HOP-18 NSCLC
OVCAR-5 ovarian = tested on: OVCAR-5 ovarian
RPMI-8226 leukemia = tested on: RPMI-8226 leukemia
KM12 colon = tested on: KM12 colon
U251 CNS = tested on: U251 CNS
NCI-H226 lung = tested on: NCI-H226 lung
KM20L2 colon = tested on: KM20L2 colon
SF-295 CNS = tested on: SF-295 CNS
ACHN renal = tested on: ACHN renal
CCRF-CEM leukemia = tested on: CCRF-CEM leukemia
HCT-15 colon = tested on: HCT-15 colon
HT29 colon = tested on: HT29 colon
OVCAR-8 ovarian = tested on: OVCAR-8 ovarian
K-562 leukemia = tested on: K-562 leukemia
UO-31 renal = tested on: UO-31 renal
DMS 114 small cell lung = tested on: DMS 114 small cell lung
SK-MEL-5 melanoma = tested on: SK-MEL-5 melanoma
HL-60(TB) leukemia = tested on: HL-60(TB) leukemia
LOX IMVI melanoma = tested on: LOX IMVI melanoma
SW-620 colon = tested on: SW-620 colon
MALME-3M melanoma = tested on: MALME-3M melanoma
SK-OV-3 ovarian = tested on: SK-OV-3 ovarian
NCI-H522 lung = tested on: NCI-H522 lung
UACC-62 melanoma = tested on: UACC-62 melanoma
NCI-H23 lung = tested on: NCI-H23 lung
A498 renal = tested on: A498 renal
DMS 273 small cell lung = tested on: DMS 273 small cell lung
SK-MEL-2 melanoma = tested on: SK-MEL-2 melanoma
UACC-257 melanoma = tested on: UACC-257 melanoma
HCC-2998 colon = tested on: HCC-2998 colon
COLO 205 colon = tested on: COLO 205 colon
SNB-78 CNS = tested on: SNB-78 CNS
SF-268 CNS = tested on: SF-268 CNS

N#CC(=Nc1ccccc1N(C(=O)c1ccccc1)C(=O)c1ccccc1)c1ccccc1
TGI (OVCAR-3 ovarian): > 100 µM | TGI (SR leukemia): 24.2 µM | TGI (SF-539 CNS): > 100 µM | TGI (IGROV1 ovarian): > 100 µM | TGI (DLD-1 colon): > 100 µM | TGI (SNB-19 CNS): > 54.9 µM | TGI (LXFL 529 NSCLC): > 100 µM | TGI (OVCAR-4 ovarian): > 76.2 µM | TGI (EKVX NSCLC): > 100 µM | TGI (CAKI-1 renal): > 100 µM | TGI (786-0 renal): > 100 µM | TGI (SN12C renal): > 100 µM | TGI (SNB-75 CNS): > 100 µM | TGI (A549 NSCLC): > 48.8 µM | TGI (HCT-116 colon): > 44.8 µM | TGI (XF 498 CNS): > 100 µM | TGI (M19-MEL melanoma): > 100 µM | TGI (TK-10 renal): > 100 µM | TGI (HOP-62 NSCLC): > 100 µM | TGI (MOLT-4 leukemia): > 100 µM | TGI (HOP-92 NSCLC): > 93.3 µM | TGI (M14 melanoma): > 100 µM | TGI (SK-MEL-28 melanoma): > 100 µM | TGI (RXF 393 renal): > 39.3 µM | TGI (NCI-H460 lung): > 100 µM | TGI (HOP-18 NSCLC): > 100 µM | TGI (OVCAR-5 ovarian): > 100 µM | TGI (RPMI-8226 leukemia): > 81.4 µM | TGI (KM12 colon): > 70.9 µM | TGI (U251 CNS): > 100 µM | TGI (NCI-H226 lung): > 100 µM | TGI (KM20L2 colon): > 100 µM | TGI (SF-295 CNS): > 100 µM | TGI (ACHN renal): > 100 µM | TGI (CCRF-CEM leukemia): > 31.2 µM | TGI (HCT-15 colon): > 90.3 µM | TGI (HT29 colon): > 100 µM | TGI (OVCAR-8 ovarian): > 100 µM | TGI (K-562 leukemia): > 60.9 µM | TGI (UO-31 renal): > 100 µM | TGI (DMS 114 small cell lung): > 48.8 µM | TGI (SK-MEL-5 melanoma): > 100 µM | TGI (HL-60(TB) leukemia): > 41.1 µM | TGI (LOX IMVI melanoma): > 100 µM | TGI (SW-620 colon): > 62.2 µM | TGI (MALME-3M melanoma): > 100 µM | TGI (SK-OV-3 ovarian): > 100 µM | TGI (NCI-H522 lung): > 100 µM | TGI (UACC-62 melanoma): > 100 µM | TGI (NCI-H23 lung): > 100 µM | TGI (A498 renal): > 100 µM | TGI (DMS 273 small cell lung): > 100 µM | TGI (SK-MEL-2 melanoma): > 100 µM | TGI (UACC-257 melanoma): > 100 µM | TGI (HCC-2998 colon): > 100 µM | TGI (COLO 205 colon): > 64.6 µM | TGI (SNB-78 CNS): > 100 µM | TGI (SF-268 CNS): > 100 µM

CC12CCC3C(CCC4CC(OC(=O)Cc5ccc(N(CCCl)CCCl)cc5)CCC43C)C1CCC(=O)N2 (stereo unspecified)
TGI (OVCAR-3 ovarian): 32.1 µM | TGI (SR leukemia): 16.8 µM | TGI (SF-539 CNS): 29.4 µM | TGI (IGROV1 ovarian): 31 µM | TGI (DLD-1 colon): 33 µM | TGI (SNB-19 CNS): 32.5 µM | TGI (LXFL 529 NSCLC): 30 µM | TGI (OVCAR-4 ovarian): 29.3 µM | TGI (EKVX NSCLC): 30.5 µM | TGI (CAKI-1 renal): 29.5 µM | TGI (786-0 renal): 28.8 µM | TGI (SN12C renal): 29.6 µM | TGI (SNB-75 CNS): 28.9 µM | TGI (A549 NSCLC): 29 µM | TGI (HCT-116 colon): 28.3 µM | TGI (XF 498 CNS): 30.8 µM | TGI (M19-MEL melanoma): 33.5 µM | TGI (TK-10 renal): 35.5 µM | TGI (MOLT-4 leukemia): 24.4 µM | TGI (HOP-92 NSCLC): 30.9 µM | TGI (M14 melanoma): 32.2 µM | TGI (SK-MEL-28 melanoma): 30.9 µM | TGI (RXF 393 renal): 28 µM | TGI (NCI-H460 lung): 22.4 µM | TGI (HOP-18 NSCLC): 31.2 µM | TGI (RPMI-8226 leukemia): 35.3 µM | TGI (KM12 colon): 32.1 µM | TGI (U251 CNS): 28.4 µM | TGI (NCI-H226 lung): 30.1 µM | TGI (KM20L2 colon): 31.2 µM | TGI (SF-295 CNS): 30.3 µM | TGI (ACHN renal): 23.2 µM | TGI (CCRF-CEM leukemia): 22.7 µM | TGI (HCT-15 colon): 28.3 µM | TGI (HT29 colon): 30.2 µM | TGI (OVCAR-8 ovarian): 29.2 µM | TGI (K-562 leukemia): 35.3 µM | TGI (UO-31 renal): 33.9 µM | TGI (DMS 114 small cell lung): 25.6 µM | TGI (SK-MEL-5 melanoma): 33.3 µM | TGI (HL-60(TB) leukemia): 22 µM | TGI (SW-620 colon): 27.8 µM | TGI (MALME-3M melanoma): 32.9 µM | TGI (SK-OV-3 ovarian): 32.5 µM | TGI (NCI-H522 lung): 28.3 µM | TGI (NCI-H23 lung): 25.8 µM | TGI (A498 renal): 31.4 µM | TGI (DMS 273 small cell lung): 25.6 µM | TGI (SK-MEL-2 melanoma): 29.8 µM | TGI (HCC-2998 colon): 41.6 µM | TGI (COLO 205 colon): 31.1 µM | TGI (SNB-78 CNS): 40.7 µM | TGI (SF-268 CNS): 31.1 µM
